Laboratory results published in the supplement of paper PMC10307832.

Legend:
Assay in all cases: relative viability (nuclei count vs DMSO), 5 days (fraction); higher = more cells survive
[1] = compound: CC1=C(CC(=O)O)c2cc(F)ccc2/C1=C\c1ccc([S+](C)[O-])cc1 [Sulindac] + CCNC(=O)c1noc(-c2cc(C(C)C)c(O)cc2O)c1-c1ccc(CN2CCOCC2)cc1 [Luminespib] (partner 0.01 µM)
In short: (§1)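 For relative viability, nuclei counts in treated wells were divided by those in vehicle wells. Lung cancer cell lines had been pin-tool dosed in 1536-well plates the day after seeding and cultured for 5 days, then fixed and stained in one step (final 0.05% Triton X-100, 1% formaldehyde, 1 ug/ml Hoechst) and imaged at 4×. Doses were one drug alone or a fixed anchor-drug dose plus five library-drug doses (not always all listed) in √10 steps, and values are duplicate-plate medians.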

[2] = compound: CN[C@@H]1C[C@H]2O[C@@](C)([C@@H]1OC)n1c3ccccc3c3c4c(c5c6ccccc6n2c5c31)C(=O)NC4 [Staurosporine] + Cc1cc(Nc2cc(N3CCN(C)CC3)nc(Sc3ccc(NC(=O)C4CC4)cc3)n2)n[nH]1 [Tozasertib] (partner 0.1 µM)
In short: as §1

[3] = compound: CN[C@@H]1C[C@H]2O[C@@](C)([C@@H]1OC)n1c3ccccc3c3c4c(c5c6ccccc6n2c5c31)C(=O)NC4 [Staurosporine] + N=C(N)NC(=N)NCCc1ccccc1 [Phenformin] (partner 250 µM)
In short: as §1

[4] = compound: CN[C@@H]1C[C@H]2O[C@@](C)([C@@H]1OC)n1c3ccccc3c3c4c(c5c6ccccc6n2c5c31)C(=O)NC4 [Staurosporine] + NC(=O)Nc1cc(-c2cccc(F)c2)sc1C(=O)N[C@H]1CCCNC1 [AZD7762] (partner 0.2 µM)
In short: as §1

Cell Line	relative viability ([1]; first compound 0.08 µM)	relative viability ([1]; first compound 0.253 µM)	relative viability ([1]; first compound 0.8 µM)	relative viability ([1]; first compound 2.53 µM)	relative viability ([1]; first compound 8 µM)	relative viability ([2]; first compound 0.005 µM)	relative viability ([2]; first compound 0.01581 µM)	relative viability ([2]; first compound 0.05 µM)	relative viability ([2]; first compound 0.1581 µM)	relative viability ([2]; first compound 0.5 µM)	relative viability ([3]; first compound 0.005 µM)	relative viability ([3]; first compound 0.01581 µM)	relative viability ([3]; first compound 0.05 µM)	relative viability ([3]; first compound 0.1581 µM)	relative viability ([3]; first compound 0.5 µM)	relative viability ([4]; first compound 0.005 µM)	relative viability ([4]; first compound 0.01581 µM)	relative viability ([4]; first compound 0.05 µM)	relative viability ([4]; first compound 0.1581 µM)	relative viability ([4]; first compound 0.5 µM)
LU99A	0.164	0.315	0.196	0.243	0.263	0.266	0.178	0.185	0.225	0.138	0.671	0.335	0.353	0.24	0.162	0.327	0.135	0.205	0.153	0.0961
LXF-289	0.821	0.847	0.58	0.715	0.611	0.0996	0.072	0.0495	0.0532	0.0507	0.325	0.0737	0.172	0.0511	0.0502	0.903	0.157	0.298	0.0835	0.0894
NCI-H23	0.174			0.234	0.243	0.324		0.198	0.157	0.196	0.763		0.351	0.174	0.161	0.223	0.126	0.164	0.12	0.0804
NCI-H322M	0.887	0.819	0.644	0.848	0.881	0.318	0.318	0.287	0.334	0.288		0.348		0.289	0.248	0.552	0.456	0.527	0.393	0.425
NCI-H358	0.202	0.384		0.46	0.359	0.0876	0.0765	0.0699	0.0598	0.0619	0.337	0.0847	0.0848	0.0499	0.0405	0.339	0.378	0.253	0.195	0.172
NCI-H441	0.345	0.326	0.352	0.239	0.289	0.392	0.379	0.231	0.195	0.208	0.817	0.259	0.246	0.202	0.102	0.86	0.538	0.315	0.293	0.165
NCI-H460	0.0451	0.0347	0.0378	0.0255	0.0267	0.698	0.113	0.304	0.0517	0.0214	0.301	0.0818	0.071	0.0104	0.0069	0.656	0.532	0.741	0.0465	0.0251
NCI-H522	1.15	1.01	1.09	1.2	1.22	0.541		0.492	0.433	0.486	0.783		0.594	0.41	0.405	0.953	0.866	0.715	0.639	0.404
